The structures appear in SMILES notation.

Chain of mGlyT-1b (P28571 other isoform, or with tags, fused parts or gaps isoform P28571-2): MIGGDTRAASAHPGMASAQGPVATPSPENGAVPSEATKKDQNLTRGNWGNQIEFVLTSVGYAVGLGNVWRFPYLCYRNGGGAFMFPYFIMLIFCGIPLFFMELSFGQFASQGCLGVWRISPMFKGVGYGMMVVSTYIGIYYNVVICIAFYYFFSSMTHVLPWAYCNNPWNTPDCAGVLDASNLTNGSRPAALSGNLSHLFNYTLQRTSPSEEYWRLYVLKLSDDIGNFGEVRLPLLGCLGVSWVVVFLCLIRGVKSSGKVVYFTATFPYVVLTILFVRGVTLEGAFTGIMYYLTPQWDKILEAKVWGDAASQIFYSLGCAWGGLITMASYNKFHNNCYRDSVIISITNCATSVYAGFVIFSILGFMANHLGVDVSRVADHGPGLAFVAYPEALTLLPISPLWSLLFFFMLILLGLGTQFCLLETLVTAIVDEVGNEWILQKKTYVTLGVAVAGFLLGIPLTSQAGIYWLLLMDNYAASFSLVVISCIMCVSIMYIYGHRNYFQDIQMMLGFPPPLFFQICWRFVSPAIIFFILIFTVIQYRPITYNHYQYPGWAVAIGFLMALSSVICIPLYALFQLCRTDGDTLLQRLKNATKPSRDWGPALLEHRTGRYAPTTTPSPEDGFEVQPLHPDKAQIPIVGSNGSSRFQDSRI

This experiment concerns the target mGlyT-1b (Mus musculus (Mouse), UniProt P28571). Briefly: Glycine Uptake Inhibition Assay (mGlyT-1b). It counts as cell-based. Particulars: [3H]-glycine uptake in Flp-in-CHO cells stably transfected with mGlyT1b cDNA; 20 min preincubation at 22° C. Here is the method: DMEM complete medium: Nutrient mixture F-12 (Gibco Life-technologies), fetal bovine serum (FBS) 5%, (Gibco life technologies), Penicillin/Streptomycin 1% (Gibco life technologies), Hygromycin 0.6 mg/ml (Gibco life technologies), Glutamine 1 mM Gibco life technologies)
Uptake buffer (UB): 150 mM NaCl, 10 mM Hepes-Tris, pH 7.4, 1 mM CaCl2, 2.5 mM KCl, 2.5 mM MgSO4, 10 mM (+) D-glucose.
Flp-in™-CHO (Invitrogen Cat no R758-07) cells stably transfected with mGlyT1b cDNA.
Glycine Uptake Inhibition Assay (mGlyT-1b)
On day 1 mammalian cells, (Flp-in™-CHO), transfected with mGlyT-1b cDNA, were plated at the density of 40,000 cells/well in complete F-12 medium, without hygromycin in 96-well culture plates. On day 2, the medium was aspirated and the cells were washed twice with uptake buffer (UB). The cells were then incubated for 20 min at 22° C. with either (i) no potential competitor, (ii) 10 mM non-radioactive glycine, (iii) a concentration of a potential inhibitor. A range of concentrations of the potential inhibitor was used to generate data for calculating the concentration of inhibitor resulting in 50% of the effect (e.g. IC50, the concentration of the competitor inhibiting glycine uptake of 50%). A solution was then immediately added containing [^3H]-glycine 60 nM (11-16 Ci/mmol) and 25 μM non-radioactive glycine. The plates were incubated with gentle shaking and the reaction was stopped by aspiration of the mixture and washing (three times) with ice-cold UB. The cells were lysed with scintillation liquid, shaken 3 hours and the radioactivity in the cells was counted using a scintillation counter.
For `COc1cc(C(F)(F)F)cc(SC)c1C(=O)N[C@H]1COCC[C@H]1N1CCCC1` (racemic) [Example 1, 2-Methoxy-6-methylsulfanyl-N-((3RS,4RS)-4-pyrrolidin-1-yl-tetrahydro-pyran-3-yl)-4-trifluoromethyl-benzamide], 261 nM corresponded to half-maximal inhibition (IC50).
In the case of `COc1cc(C(F)(F)F)cc(SC)c1C(=O)N[C@H]1COCC[C@@H]1N1CCCC1` (racemic) [Example 2, 2-Methoxy-6-methylsulfanyl-N-((3RS,4SR)-4-pyrrolidin-1-yl-tetrahydro-pyran-3-yl)-4-trifluoromethyl-benzamide], the IC50 (commonly the concentration that inhibits the measured activity by half) is 66.2 nM.
Under `COc1cc(C(F)(F)F)cc(SC)c1C(=O)N[C@H]1COCC[C@H]1NC1CCC1` (racemic) [Example 3, N-((3RS,4RS)-4-Cyclobutylamino-tetrahydro-pyran-3-yl)-2-methoxy-6-methylsulfanyl-4-trifluoromethyl-benzamide] stands 506 nM.
For `COc1cc(C(F)(F)F)cc(SC)c1C(=O)N[C@H]1COCC[C@@H]1NC1CCC1` (racemic) [Example 4, N-((3RS,4SR)-4-Cyclobutylamino-tetrahydro-pyran-3-yl)-2-methoxy-6-methylsulfanyl-4-trifluoromethyl-benzamide], it took 337 nM to reach half-maximal inhibition (IC50).
With `COc1cc(C(F)(F)F)cc(SC)c1C(=O)N[C@H]1COCC[C@@H]1N1CCC(O)C1` (mixture of isomers) [Example 7, N-[(3RS,4SR)-4-(3-Hydroxy-pyrrolidin-1-yl)-tetrahydro-pyran-3-yl]-2-methoxy-6-methylsulfanyl-4-trifluoromethyl-benzamide], the IC50 amounted to 155 nM.
Then `O=C(N[C@@H]1COCC[C@H]1N1CCCC1)c1ccc(C(F)(F)F)cc1C1CC1` (racemic) [Example 8, 2-Cyclopropyl-N-((3SR,4RS)-4-pyrrolidin-1-yl-tetrahydro-pyran-3-yl)-4-trifluoromethyl-benzamide], with 36.3 nM; and `CSc1cc(C(F)(F)F)cc(C(F)(F)F)c1C(=O)N[C@@H]1COCC[C@H]1N1CCCC1` (racemic) [Example 9, 2-Methylsulfanyl-N-((3SR,4RS)-4-pyrrolidin-1-yl-tetrahydro-pyran-3-yl)-4,6-bis-trifluoromethyl-benzamide], with 16.5 nM.
Consider `Cc1cc(C(F)(F)F)cc(C(F)(F)F)c1C(=O)N[C@@H]1COCC[C@H]1N1CCCC1` (racemic) [Example 10, 2-Methyl-N-((3SR,4RS)-4-pyrrolidin-1-yl-tetrahydro-pyran-3-yl)-4,6-bis-trifluoromethyl-benzamide], for which the IC50 was determined as 41.2 nM.
In turn, `COc1cc(C(F)(F)F)cc(SC)c1C(=O)N[C@@H]1COCC[C@H]1NC1CCCC1` (racemic) [Example 11, N-((3SR,4RS)-4-Cyclopentylamino-tetrahydro-pyran-3-yl)-2-methoxy-6-methylsulfanyl-4-trifluoromethyl-benzamide] displayed a 50% inhibitory concentration (IC50) of 127 nM.
Under `O=C(N[C@@H]1COCC[C@H]1NC1CCCC1)c1ccc(C(F)(F)F)cc1C1CC1` (racemic) [Example 12, N-((3SR,4RS)-4-Cyclopentylamino-tetrahydro-pyran-3-yl)-2-cyclopropyl-4-trifluoromethyl-benzamide] stands 75 nM; under `CSc1cc(C(F)(F)F)cc(C(F)(F)F)c1C(=O)N[C@@H]1COCC[C@H]1NC1CCCC1` (racemic) [Example 13, N-((3SR,4RS)-4-Cyclopentylamino-tetrahydro-pyran-3-yl)-2-methylsulfanyl-4,6-bis-trifluoromethyl-benzamide], 250 nM.
Then `O=C(N[C@@H]1COCC[C@H]1NC1CCCCC1)c1ccc(C(F)(F)F)cc1C1CC1` (racemic) [Example 14, N-((3SR,4RS)-4-Cyclohexylamino-tetrahydro-pyran-3-yl)-2-cyclopropyl-4-trifluoromethyl-benzamide], with 125 nM.
Compound `O=C(N[C@@H]1COCC[C@H]1N1CCCC1)c1c(C2CC2)cc(C(F)(F)F)cc1C(F)(F)F` (racemic) [Example 15, 2-Cyclopropyl-N-((3SR,4RS)-4-pyrrolidin-1-yl-tetrahydro-pyran-3-yl)-4,6-bis-trifluoromethyl-benzamide] returned an IC50 of 13.2 nM.
Then `CC(C)N[C@@H]1CCOC[C@H]1NC(=O)c1ccc(C(F)(F)F)cc1C1CC1` (racemic) [Example 16, Cyclopropyl-N-((3SR,4RS)-4-isopropylamino-tetrahydro-pyran-3-yl)-4-trifluoro-methylbenzamide], with 296 nM.
Under `O=C(N[C@@H]1COCC[C@H]1NC1CCOCC1)c1ccc(C(F)(F)F)cc1C1CC1` (racemic) [Example 17, 2-Cyclopropyl-N-[(3SR,4RS)-4-(tetrahydro-pyran-4-ylamino)-tetrahydro-pyran-3-yl]-4-trifluoro-methylbenzamide] stands 904 nM; under `O=C(N[C@@H]1COCC[C@H]1NCC1CC1)c1ccc(C(F)(F)F)cc1C1CC1` (racemic) [Example 18, Cyclopropyl-N-[(3SR,4RS)-4-(cyclopropyl-methyl-amino)-tetrahydro-pyran-3-yl]-4-trifluoro-methylbenzamide], 126 nM.
Consider `O=C(N[C@@H]1COCC[C@H]1N1CCCCC1)c1ccc(C(F)(F)F)cc1C1CC1` (racemic) [Example 19, 2-Cyclopropyl-N-((3SR,4RS)-4-piperidin-1-yl-tetrahydro-pyran-3-yl)-4-trifluoro-methylbenzamide], for which it took 81.5 nM to reach half-maximal inhibition (IC50).
Take `O=C(N[C@@H]1COCC[C@H]1NC1CC1)c1ccc(C(F)(F)F)cc1C1CC1` (racemic) [Example 20, 2-Cyclopropyl-N-((3SR,4RS)-4-cyclopropylamino-tetrahydro-pyran-3-yl)-4-trifluoromethyl-benzamide]: the IC50 turned out to be 193 nM.
Then `Cc1cc(C(F)(F)F)cc(C)c1C(=O)N[C@@H]1COCC[C@H]1N1CCCC1` (racemic) [Example 21, 2,6-Dimethyl-N-((3SR,4RS)-4-pyrrolidin-1-yl-tetrahydro-pyran-3-yl)-4-trifluoro-methylbenzamide], with 45.2 nM; and `COc1cc(C(F)(F)F)cc(C)c1C(=O)N[C@@H]1COCC[C@H]1N1CCCC1` (racemic) [Example 22, 2-Methoxy-6-methyl-N-((3SR,4RS)-4-pyrrolidin-1-yl-tetrahydro-pyran-3-yl)-4-trifluoro-methylbenzamide], with 105 nM.
Compound `CCc1cc(C(F)(F)F)cc(CC)c1C(=O)N[C@@H]1COCC[C@H]1N1CCCC1` (racemic) [Example 23, 2,6-Diethyl-N-((3SR,4RS)-4-pyrrolidin-1-yl-tetrahydro-pyran-3-yl)-4-trifluoro-methylbenzamide] gave an IC50 of 58.4 nM.
Under `CCc1cc(C(F)(F)F)cc(OC)c1C(=O)N[C@@H]1COCC[C@H]1N1CCCC1` (racemic) [Example 24, 2-Ethyl-6-methoxy-N-((3SR,4RS)-4-pyrrolidin-1-yl-tetrahydro-pyran-3-yl)-4-trifluoro-methyl-benzamide] stands 64.1 nM.
Under `COc1cc(C(F)(F)F)cc(SC)c1C(=O)N[C@@H]1COCC[C@H]1NC1(C)CCCCC1` (racemic) [Example 25, 2-Methoxy-N-[(3SR,4RS)-4-(1-methyl-cyclohexyl-amino)-tetrahydro-pyran-3-yl]-6-methyl-sulfanyl-4-trifluoromethyl-benzamide] stands 278 nM; under `CCc1cc(C(F)(F)F)cc(C)c1C(=O)N[C@@H]1COCC[C@H]1N1CCCC1` (racemic) [Example 26, 2-Ethyl-6-methyl-N-((3SR,4RS)-4-pyrrolidin-1-yl-tetrahydro-pyran-3-yl)-4-trifluoro-methyl-benzamide], 17.9 nM; under `COc1cc(C(F)(F)F)cc(C2CC2)c1C(=O)N[C@@H]1COCC[C@H]1N1CCCC1` (racemic) [Example 27, Cyclopropyl-6-methoxy-N-((3SR,4RS) 4 pyrrolidin-1-yl-tetrahydro-pyran-3-yl)-4-trifluoro-methyl-benzamide], 14.7 nM.
Turning to `COc1cc(C(F)(F)F)cc(SC)c1C(=O)N[C@@H]1COCC[C@H]1NC1(C)CCCC1` (racemic) [Example 28, 2-Methoxy-N-[(3SR,4RS)-4-(1-methyl-cyclo-pentylamino)-tetrahydro-pyran-3-yl]-6-methyl-sulfanyl-4-trifluoromethyl-benzamide], the concentration for half-maximal inhibition (IC50) is 144 nM.
Compound `CC1(N[C@@H]2CCOC[C@H]2NC(=O)c2ccc(C(F)(F)F)cc2C2CC2)CCCC1` (racemic) [Example 29, 2-Cyclopropyl-N-[(3SR,4RS)-4-(1-methyl-cyclo-pentyl-amino)tetra-hydro-pyran-3-yl]-4-trifluoromethyl-benzamide] returned a concentration for half-maximal inhibition (IC50) of 235 nM.
Regarding `CC(N[C@@H]1CCOC[C@H]1NC(=O)c1ccc(C(F)(F)F)cc1C1CC1)C1CC1` (mixture of isomers) [Example 30, 2-Cyclopropyl-N-[(3RS,4SR)-4-(1-cyclopropyl-ethylamino)-tetrahydro-pyran-3-yl]-4-trifluoro-methylbenzamide], the midpoint of inhibition, the IC50, lay at 83.8 nM.

The values are drawn from US8524909B2, “Tetrahydro-pyran derivatives” (Hoffmann-La Roche Inc., priority 2010, dated 2013).
